Data taken from the NIST ThermoML archive (doi:10.1021/je900414p).
± gives the expanded uncertainty stated by the source.

Assay: xn = mol fraction of the nth substance listed
Details: Liquid

CCOS(=O)(=O)[O-].CCn1cc[n+](C)c1 [1-ethyl-3-methylimidazolium ethyl sulfate] + CCO
mass density [kg/m3]
Details	100 kPa	2500 kPa	5000 kPa	10000 kPa	15000 kPa	20000 kPa	25000 kPa	30000 kPa	35000 kPa
313.15 K, x1 = 0.05056	843.63 ± 0.68	845.7 ± 0.7	847.81 ± 0.8	851.86 ± 0.92	855.73 ± 1.1	859.44 ± 1.2	862.99 ± 1.3	866.42 ± 1.4	869.72 ± 1.6
313.15 K, x1 = 0.103	902 ± 1	903.78 ± 0.62	905.71 ± 0.66	909.43 ± 0.72	912.99 ± 0.78	916.4 ± 0.8	919.72 ± 0.89	922.91 ± 0.94	926.01 ± 0.99
313.15 K, x1 = 0.1247	923.22 ± 0.56	925.01 ± 0.58	926.88 ± 0.6	930.46 ± 0.65	933.91 ± 0.69	937.23 ± 0.72	940.45 ± 0.76	943.56 ± 0.79	946.56 ± 0.81
313.15 K, x1 = 0.2126	992.44 ± 0.47	994.08 ± 0.46	995.74 ± 0.46	998.97 ± 0.46	1002.07 ± 0.46	1005.09 ± 0.47	1008.03 ± 0.48	1010.88 ± 0.5	1013.65 ± 0.52
313.15 K, x1 = 0.2919	1041.3 ± 0.5	1042.32 ± 0.51	1043.83 ± 0.52	1046.78 ± 0.56	1049.64 ± 0.6	1052.42 ± 0.66	1055.15 ± 0.72	1057.79 ± 0.78	1060.38 ± 0.86
313.15 K, x1 = 0.3185	1054.58 ± 0.5	1055.91 ± 0.52	1057.39 ± 0.54	1060.28 ± 0.59	1063.09 ± 0.65	1065.82 ± 0.72	1068.49 ± 0.8	1071.08 ± 0.88	1073.63 ± 0.97
313.15 K, x1 = 0.4198	1098.28 ± 0.56	1099.64 ± 0.6	1101.01 ± 0.64	1103.69 ± 0.74	1106.3 ± 0.8	1108.84 ± 0.96	1111.34 ± 1.1	1113.78 ± 1.2	1116.18 ± 1.4
313.15 K, x1 = 0.4847	1120.82 ± 0.6	1122.08 ± 0.65	1123.39 ± 0.7	1125.96 ± 0.82	1128.48 ± 0.95	1130.94 ± 1.1	1133.35 ± 1.3	1135.7 ± 1.5	1138.01 ± 1.6
313.15 K, x1 = 0.5713	1146.49 ± 0.64	1147.66 ± 0.7	1148.92 ± 0.77	1151.37 ± 0.92	1153.79 ± 1.1	1156.13 ± 1.3	1158.44 ± 1.5	1160.72 ± 1.7	1162.93 ± 1.9
313.15 K, x1 = 0.6827	1173.47 ± 0.69	1174.61 ± 0.76	1175.83 ± 0.85	1178.16 ± 1	1180.44 ± 1.2	1182.7 ± 1.5	1184.92 ± 1.7	1187.08 ± 1.9	1189.22 ± 2.2
313.15 K, x1 = 0.7919	1195.34 ± 0.73	1196.17 ± 0.81	1197.31 ± 0.91	1199.56 ± 1.1	1201.76 ± 1.4	1203.92 ± 1.6	1206.06 ± 1.9	1208.15 ± 2.1	1210.22 ± 2.4
313.15 K, x1 = 0.9317	1217.11 ± 0.77	1218.16 ± 0.87	1219.26 ± 0.98	1221.43 ± 1.2	1223.56 ± 1.5	1225.65 ± 1.8	1227.71 ± 2.1	1229.75 ± 2.4	1231.75 ± 2.6
323.15 K, x1 = 0.05056	835.32 ± 0.7	837.47 ± 0.76	839.71 ± 0.82	843.97 ± 0.95	848.02 ± 1.1	851.88 ± 1.2	855.6 ± 1.4	859.16 ± 1.5	862.58 ± 1.6
323.15 K, x1 = 0.103	893.98 ± 0.61	895.85 ± 0.64	897.87 ± 0.67	901.75 ± 0.74	905.47 ± 0.81	909.03 ± 0.88	912.49 ± 0.94	915.79 ± 1	919.01 ± 1.1
323.15 K, x1 = 0.1247	915.32 ± 0.57	917.14 ± 0.59	919.07 ± 0.62	922.82 ± 0.67	926.4 ± 0.7	929.85 ± 0.76	933.19 ± 0.8	936.42 ± 0.84	939.53 ± 0.87
323.15 K, x1 = 0.2126	984.81 ± 0.47	986.48 ± 0.47	988.21 ± 0.47	991.57 ± 0.47	994.8 ± 0.5	997.91 ± 0.46	1000.95 ± 0.46	1003.91 ± 0.47	1006.77 ± 0.49
323.15 K, x1 = 0.2919	1034.05 ± 0.49	1035.04 ± 0.5	1036.64 ± 0.51	1039.7 ± 0.5	1042.66 ± 0.58	1045.53 ± 0.62	1048.35 ± 0.68	1051.07 ± 0.74	1053.73 ± 0.8
323.15 K, x1 = 0.3185	1047.28 ± 0.49	1048.63 ± 0.51	1050.16 ± 0.53	1053.16 ± 0.57	1056.05 ± 0.63	1058.87 ± 0.69	1061.63 ± 0.75	1064.29 ± 0.83	1066.91 ± 0.91
323.15 K, x1 = 0.4198	1091.13 ± 0.55	1092.5 ± 0.6	1093.93 ± 0.63	1096.7 ± 0.7	1099.39 ± 0.81	1102.02 ± 0.92	1104.58 ± 1.1	1107.1 ± 1.2	1109.55 ± 1.3
323.15 K, x1 = 0.4847	1113.75 ± 0.59	1115 ± 1	1116.36 ± 0.68	1119.02 ± 0.79	1121.59 ± 0.92	1124.12 ± 1.1	1126.59 ± 1.2	1129.01 ± 1.4	1131.39 ± 1.6
323.15 K, x1 = 0.5713	1139.53 ± 0.63	1140.71 ± 0.69	1142.02 ± 0.75	1144.55 ± 0.89	1147.01 ± 1.1	1149.42 ± 1.2	1151.81 ± 1.4	1154.14 ± 1.6	1156.41 ± 1.8
323.15 K, x1 = 0.6827	1166.57 ± 0.67	1167.74 ± 0.75	1168.97 ± 0.83	1171.37 ± 1	1173.72 ± 1.2	1176.03 ± 1.4	1178.31 ± 1.6	1180.52 ± 1.9	1182.71 ± 2.1
323.15 K, x1 = 0.7919	1188.51 ± 0.71	1189.35 ± 0.8	1190.5 ± 0.9	1192.81 ± 1.1	1195.06 ± 1.3	1197.29 ± 1.6	1199.48 ± 1.8	1201.62 ± 2.1	1203.73 ± 2.3
323.15 K, x1 = 0.9317	1210.34 ± 0.76	1211.42 ± 0.85	1212.55 ± 0.96	1214.78 ± 1.2	1216.96 ± 1.5	1219.11 ± 1.7	1221.21 ± 2	1223.29 ± 2.3	1225.34 ± 2.6
